Test results published in patent EP0052238B1, “A new vincamine derivative, a method for its preparation and pharmaceutical compositions containing it” (MEDEA RESEARCH S.r.l., priority 1980, dated 1982).

Assays:
mice = assay: Protective action on the mortality by hypobaric hypoxia; type: in vivo; settings: intravenous route, 25.6 mg/kg; for Survival time: pressure reduced until 190 mm Hg; for % Variation: survival time versus controls
[1] = test system: smooth musculature of the isolated ileum of rabbits, made hypertonic by sodium ions; assay: Myorelaxing effect on isolated ileum made hypertonic by sodium ions; settings: isolated rabbit ileum, relative to vincamine
Text: (§1) The myorelaxing effect of MR 711 and vincamine has been investigated on the smooth musculature of the isolated ileum of rabbits, made hypertonic by sodium ions or serotonin.

[2] = test system: smooth musculature of the isolated ileum of rabbits, made hypertonic by serotonin; assay: Myorelaxing effect on isolated ileum made hypertonic by serotonin; settings: isolated rabbit ileum, relative to vincamine
Text: as §1

[3] = Acute toxicity in mice (LD50, Lichtfield and Wilcoxon); settings: mouse, in vivo, ip

Row | Compound | Survival time (mice) [s] | % Variation (mice) | activity in inhibiting the sodium ions induced contractions, higher than the corresponding activity displayed by vincamine [1] [%] | activity in inhibiting the serotonin induced contractions, higher than the corresponding activity displayed by vincamine [2] [%] | LD50 [3] [mg/kg]
1 | CCC12C=C(C(=O)OCOC)n3c4c(c5ccccc53)CCN(CCC1)C42 (centres unmarked) [MR 711, 13a-ethyl-2,3,5,6,13a,13b-hexahydro-1 H-indolo[3,2,1-de]pyrido[3,2,1-ij]-[1,5]naphthyridine-12-methoxymethylcarboxylate] | 262.9 ± 31.4 | +263% | 46 | 70 | 580
2 | CC[C@]12CCCN3CCc4c(n(c5ccccc45)[C@@](O)(C(=O)OC)C1)[C@@H]32 [Vincamine] | 213.3 ± 37.9 | +194% | – | – | 195
